Data reported in ChEMBL document CHEMBL4270604, “Hedgehog pathway inhibitors of the acylthiourea and acylguanidine class show antitumor activity on colon cancer in vitro and in vivo” (Eur J Med Chem, 2018).

Tests used:
CYP2C9 = CYP2C9 (Homo sapiens, UniProt P11712); assay: Inhibition of recombinant human CYP2C9 expressed in insect cell microsomes at 1 uM using Luciferin-H as substrate preincubated for 30 mins followed by NADPH addition measured after 30 mins by luminometric method; assay type: ADME; details: probe Luciferin-H
CYP3A4 = CYP3A4 (Homo sapiens, UniProt P08684); assay: Inhibition of recombinant human CYP3A4 expressed in insect cell microsomes at 1 uM using Luciferin-IPA as substrate preincubated for 10 mins followed by NADPH addition measured after 10 mins by luminometric method; assay type: ADME; details: probe Luciferin-IPA
Cytochrome P450 1A2 = molecular target: T1, Cytochrome P450 1A2 (Homo sapiens, UniProt P05177); assay: Inhibition of recombinant human CYP1A2 expressed in insect cell microsomes using Luciferin-ME as substrate preincubated for 10 mins followed by NADPH addition measured after 30 mins by luminometric method; assay type: ADME; details: recombinant enzyme, 0.5 h
T1 sequence (P05177 whole entry): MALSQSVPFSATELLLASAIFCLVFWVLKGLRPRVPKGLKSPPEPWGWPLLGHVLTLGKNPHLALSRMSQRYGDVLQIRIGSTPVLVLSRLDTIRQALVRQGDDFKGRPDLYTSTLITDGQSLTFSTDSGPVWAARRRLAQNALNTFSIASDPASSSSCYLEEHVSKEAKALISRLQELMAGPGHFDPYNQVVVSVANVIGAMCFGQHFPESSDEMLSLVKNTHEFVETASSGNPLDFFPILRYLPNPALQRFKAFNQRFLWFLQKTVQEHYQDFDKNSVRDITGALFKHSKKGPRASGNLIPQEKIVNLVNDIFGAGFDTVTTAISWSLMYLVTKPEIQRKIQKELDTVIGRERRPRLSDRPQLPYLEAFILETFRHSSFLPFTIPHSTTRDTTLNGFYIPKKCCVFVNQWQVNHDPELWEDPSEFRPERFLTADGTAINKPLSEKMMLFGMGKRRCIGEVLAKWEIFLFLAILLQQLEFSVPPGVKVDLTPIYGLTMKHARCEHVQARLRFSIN

[1] = Apparent terminal volume of distribution in CD1 mouse at 200 mg/kg, po administered as single dose by HPLC-MS/MS analysis; assay type: ADME, organism-based; details: in vivo, read-out: Vz/F
CYP2C19 = CYP2C19 (Homo sapiens, UniProt P33261); assay: Inhibition of recombinant human CYP2C19 expressed in insect cell microsomes at 1 uM using Luciferin-H EGE as substrate preincubated for 20 mins followed by NADPH addition measured after 30 mins by luminometric method; assay type: ADME; details: probe Luciferin-H EGE
CYP2D6 = CYP2D6 (Homo sapiens, UniProt P10635); assay: Inhibition of recombinant human CYP2D6 expressed in insect cell microsomes at 5 uM using Luciferin-ME EGE as substrate preincubated for 30 mins followed by NADPH addition measured after 45 mins by luminometric method; assay type: ADME; details: probe Luciferin-ME EGE
[2] = Terminal half life in CD1 mouse at 200 mg/kg, po administered as single dose by HPLC-MS/MS analysis; assay type: ADME, organism-based; details: in vivo, read-out: beta t1/2 (converted)
Mus musculus [3] = assay: Clast in CD1 mouse at 200 mg/kg, po administered as single dose by HPLC-MS/MS analysis; assay type: ADME, organism-based; details: in vivo
[4] = Inhibition of hedgehog signaling pathway-mediated differentiation of mouse C3H10T1/2 cells assessed as decrease in SAG-induced ALP activity after 6 days by chemiluminescence-based assay; details: C3H 10T1/2, 144 h
[5] = Cmax in CD1 mouse at 200 mg/kg, po administered as single dose by HPLC-MS/MS analysis; assay type: ADME, organism-based; set-up: dose 200 mg/kg, route oral; details: in vivo
[6] = Drug recovery in mouse deproteinized plasma at 37 degC after 120 mins by HPLC-MS/MS analysis; assay type: ADME, cell-free; details: read-out: Drug recovery
in vitro = details: human, Caco-2
Description: Apparent permeability of the compound from basolateral to apical side in human Caco2 cells after 120 mins by LC-MS/MS analysis

CYP1A2 = molecular target: T2, CYP1A2 (Homo sapiens, UniProt P05177); assay: Inhibition of recombinant human CYP1A2 expressed in insect cell microsomes at 1 uM using Luciferin-ME as substrate preincubated for 10 mins followed by NADPH addition measured after 30 mins by luminometric method; assay type: ADME; details: probe Luciferin-ME
T2 sequence (P05177 whole entry): T1 sequence (P05177 whole entry)

[7] = Intrinsic clearance in mouse liver microsomes at 1 uM after 120 mins by HPLC-MS/MS analysis; assay type: ADME, microsome; details: read-out: CLH
LS180 = assay: Antitumor activity against human LS180 cells xenografted in athymic nude mouse assessed as tumor growth inhibition at 200 mg/kg, po administered 5 days per week for 2 weeks relative to vehicle-treated control; assay type: functional; details: read-out: TGI
[8] = Intrinsic clearance in mouse liver […] per million cells at 1 uM after 120 mins by HPLC-MS/MS analysis; assay type: ADME; details: 2 h
[9] = Half life in cryopreserved mouse liver microsomes at 1 uM after 120 mins by HPLC-MS/MS analysis; assay type: ADME, microsome
Mus musculus [10] = assay: Toxicity in athymic nude mouse xenografted with human LS180 cells assessed as body weight loss at 200 mg/kg, po administered 5 days per week for 2 weeks; assay type: organism-based; details: in vivo
[11] = Stability of the compound in mouse deproteinized plasma at 37 degC after 120 mins by HPLC-MS/MS analysis; assay type: ADME, cell-free; details: 2 h

CYP3A4, sequence (P08684 whole entry): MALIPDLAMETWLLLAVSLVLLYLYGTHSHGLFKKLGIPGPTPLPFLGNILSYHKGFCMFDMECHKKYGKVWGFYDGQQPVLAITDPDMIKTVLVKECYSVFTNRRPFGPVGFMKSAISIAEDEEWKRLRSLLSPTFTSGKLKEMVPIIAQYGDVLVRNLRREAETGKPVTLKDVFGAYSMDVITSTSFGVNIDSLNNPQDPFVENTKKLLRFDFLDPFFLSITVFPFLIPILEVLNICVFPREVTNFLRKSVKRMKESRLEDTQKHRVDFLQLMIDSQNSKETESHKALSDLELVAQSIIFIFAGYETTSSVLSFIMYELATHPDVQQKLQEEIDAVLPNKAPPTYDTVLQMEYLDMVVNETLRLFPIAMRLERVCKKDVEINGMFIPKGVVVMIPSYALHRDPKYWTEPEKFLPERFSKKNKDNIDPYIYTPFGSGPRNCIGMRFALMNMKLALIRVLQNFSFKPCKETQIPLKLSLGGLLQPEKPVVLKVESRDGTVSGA
CYP2C9, sequence (P11712 whole entry): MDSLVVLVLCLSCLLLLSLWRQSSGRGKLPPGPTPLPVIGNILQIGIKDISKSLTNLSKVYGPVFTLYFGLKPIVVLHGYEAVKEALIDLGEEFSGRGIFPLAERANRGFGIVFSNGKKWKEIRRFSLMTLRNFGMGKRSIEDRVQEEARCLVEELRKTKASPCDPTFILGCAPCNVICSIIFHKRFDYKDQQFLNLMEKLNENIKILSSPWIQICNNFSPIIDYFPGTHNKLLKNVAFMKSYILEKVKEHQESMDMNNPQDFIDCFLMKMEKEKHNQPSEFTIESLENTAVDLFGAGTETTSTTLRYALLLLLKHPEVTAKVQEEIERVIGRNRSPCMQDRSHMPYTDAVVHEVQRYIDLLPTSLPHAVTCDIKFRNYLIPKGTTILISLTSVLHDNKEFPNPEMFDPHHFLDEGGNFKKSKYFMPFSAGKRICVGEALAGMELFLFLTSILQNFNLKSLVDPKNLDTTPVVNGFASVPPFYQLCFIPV
CYP2C19, sequence (P33261 whole entry): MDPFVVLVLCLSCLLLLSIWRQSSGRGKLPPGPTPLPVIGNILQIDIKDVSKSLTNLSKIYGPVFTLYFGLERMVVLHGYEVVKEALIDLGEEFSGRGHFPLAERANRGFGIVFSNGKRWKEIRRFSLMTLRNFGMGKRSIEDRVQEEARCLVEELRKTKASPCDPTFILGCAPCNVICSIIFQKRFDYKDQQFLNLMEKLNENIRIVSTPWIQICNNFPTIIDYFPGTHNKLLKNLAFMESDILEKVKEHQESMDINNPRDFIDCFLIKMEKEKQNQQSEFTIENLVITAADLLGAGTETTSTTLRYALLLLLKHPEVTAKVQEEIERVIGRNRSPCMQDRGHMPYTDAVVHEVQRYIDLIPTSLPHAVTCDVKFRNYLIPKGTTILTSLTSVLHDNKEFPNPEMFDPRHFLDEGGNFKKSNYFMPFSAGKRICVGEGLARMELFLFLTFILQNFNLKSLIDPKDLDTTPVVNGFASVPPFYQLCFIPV
CYP2D6, sequence (P10635 whole entry): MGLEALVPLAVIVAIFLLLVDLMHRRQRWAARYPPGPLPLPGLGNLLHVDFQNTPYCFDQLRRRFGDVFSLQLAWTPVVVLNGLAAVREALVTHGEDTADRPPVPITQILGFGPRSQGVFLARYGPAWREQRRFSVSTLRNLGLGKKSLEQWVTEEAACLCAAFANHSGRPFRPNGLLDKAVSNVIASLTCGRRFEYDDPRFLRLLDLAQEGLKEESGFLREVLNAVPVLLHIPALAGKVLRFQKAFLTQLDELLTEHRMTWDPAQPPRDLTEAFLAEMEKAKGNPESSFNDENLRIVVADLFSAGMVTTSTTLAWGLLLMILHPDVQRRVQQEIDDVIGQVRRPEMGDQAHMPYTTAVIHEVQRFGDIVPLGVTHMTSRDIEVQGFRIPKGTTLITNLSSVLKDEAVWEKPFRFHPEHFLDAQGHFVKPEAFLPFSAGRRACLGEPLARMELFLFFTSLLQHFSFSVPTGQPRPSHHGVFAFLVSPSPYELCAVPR

inhibition at 0.5 h, 1 µM (CYP2C9) [%] | inhibition at 10 min, 1 µM (CYP3A4) [%] | inhibition (INH) (Cytochrome P450 1A2) | Vd/F [1] [L/kg] | inhibition at 0.5 h, 1 µM (CYP2C19) [%] | inhibition at 0.75 h, 5 µM (CYP2D6) [%] | half-life [2] [h] | Clast (Mus musculus [3]) [µg/mL] | IC50 [4] [µM] | Cmax [5] [µg/mL] | remaining at 2 h [6] [%] | Papp B→A at 2 h (in vitro) [nm/s] | inhibition at 0.5 h, 1 µM (CYP1A2) [%] | CLint scaled at 1 µM [7] [L/h/kg] | CLH [8] [µL/min] | half-life at 1 µM [9] [min] | Stability [11] | Compound | inhibition in vivo at 200 mg/kg (LS180) [%] | Activity (Mus musculus [10])
43 | 38 | Dose-dependent effect | 2.96 | 57 | 29 | 2.4 | 0.0742 | 0.06 | 29.6 | 83 | 6.51 | 49 | – | – | – | – | COc1cc(C(=O)NC(=N)Nc2ccc(C)c(NC(=O)c3ccc(-c4ccccc4)cc3)c2)cc(OC)c1OC.Cl | – | –
68 | 76 | Dose-dependent effect | 5.28 | 67 | 12 | 2.5 | 0.0507 | 0.04 | 11 | – | 7.37 | 29 | 45.4 | 286 | 8.07 | Stable | COc1cc(C(=O)NC(=N)Nc2ccc(C)c(NC(=O)c3ccc(CCc4ccccc4)cc3)c2)cc(OC)c1OC.Cl | 48 | Non-Toxic
63 | 52 | Dose-dependent effect | 3.32 | 59 | 25 | 2.6 | 0.0907 | 0.07 | 17.3 | – | 3.7 | 46 | – | – | – | Stable | COc1cc(C(=O)NC(=N)Nc2ccc(C)c(NC(=O)c3ccc(-c4ccc(F)cc4)cc3)c2)cc(OC)c1OC.Cl | – | –
